Measurements reported in patent US8507446B2, “Use of PEDF-derived polypeptides for treating liver cirrhosis” (MacKay Memorial Hospital, priority 2011, dated 2013).

Key:
[1] = test system: liver-derived progenitor cells (LDPCs) in primary rat liver cells; experiment: Clonogenic capacity of liver cells (LDPC colony formation); format: cell-based; details: basal medium with 4.5 nM PEDF, 50 nM 34-mer, 50 nM 44-mer or 10% FBS; after 11 days in culture
Procedure: (§1) Liver cells from Sprague Dawley rats were harvested by 2-step in situ collagenase perfusion technique. The cells were then washed in phosphate buffered saline and centrifuged (50 g for 5 minutes) twice at room temperature. The cells were not further subjected to any fractionation as previously described (Sahin M B et al., Liver Transpl. 2008 14(3):333-45). Freshly isolated rat liver cells were cultured in a medium consisting of 75% Dulbecco's modified Eagle's medium (DMEM) and 25% MCDB 201 (Sigma-Aldrich) supplemented with 10% fetal bovine serum, 1 mg/mL of bovine serum albumin (BSA; Sigma), 100 μM of β-mercaptoethanol (Gibco, Carlsbad, Calif.), 25 mM of 4-2-hydroxyethyl-1-piperazineethanesulfonic acid (HEPES), 5 mM of Nicotinamide (Sigma-Aldrich), 1% SITE liquid medium (Sigma-Aldrich), and penicillin (100 μg/ml)/streptomycin (100 μg/ml; Invitrogen, Carlsbad, Calif.) on Type I collagen (Sigma, St. Louis, Mo.) coated tissue culture plates or dishes at a density of 1×10^4 cells/cm^2 at 37° C. in 5% CO2.
To verify the function of 44-mer PEDF, primary rat liver cells were isolated in accordance with steps described above and cultivated (about 1×10^5 per well of 6-well plate; 1×10^4 cells/cm^2) in a conventional basal medium, which was further supplemented with 4.5 nM PEDF, 50 nM 34-mer PEDF, 50 nM 44-mer PEDF or 10% FBS. Medium was changed every 3 days. After being placed in culture for 11 days, clonogenic capacity of liver cells was continuously monitored by phase-contrast microscopy. During this time period, liver-derived progenitor cells (LDPCs) began markedly emerged in primary liver cultures while hepatocytes started dying out. Few colonies were formed by liver cells when continuously cultivated in basal medium, or medium supplemented with 34-mer or FBS.

[2] = test system: culture-activated primary rat HSCs; experiment: Activation of culture-activated primary hepatic stellate cells; format: cell-based; details: for Col1a1 expression (immunoblot) / MCP-1 expression (immunoblot) / amounts of PPARγ (immunoblot) / α-SMA expression (immunoblot): 48 hours vs solvent, 4.5 nM PEDF, 50 nM 34-mer, 50 nM 44-mer
Procedure: Primary HSCs were isolated by in situ perfusion with collagenase and pronase from livers of male Sprague-Dawley rats (300-450 g), followed by a 25%/50% Percoll gradient centrifugation at 4° C. HSCs were isolated from the upper layer of the discontinuous Percoll density gradient as previously described method (Titos et al., FASEB J 2003 17:1745-1747). Then cells were re-suspended in Dulbecco's modified Eagle's medium (DMEM) supplemented with 10% fetal bovine serum (FBS) and 1% penicillin/streptomycin and plated on 100-mm plastic dishes. Cell purity was verified to be approximately 95-98% by vitamin A fluorescence on day 2 after isolation. HSCs were activated by culturing the cells on plastic for 10 days and then passaged by trypsin-EDTA treatment. Subsequently, the activated HSCs were incubated in 10% FBS-DMEM for 2 days and then used for further experiments.
(§2) Deparaffinized liver tissue sections or 4% paraformaldehyde fixed HSCs were blocked with 10% goat serum and 5% BSA for 1 h. Dual staining was done using primary antibodies against human PEDF (se-59641; Santa Cruz Biotechnology, CA, USA) or α-SMA (ab5694 or ab7817; Abcam), PPARγ (sc-7273; Santa Cruz Biotechnology), albumin (sc-46295; Santa Cruz Biotechnology) or cytokeratin (CK) 18 (GTX112978; GeneTex, Inc.) at 37° C. for 2 h, followed by incubation with the appropriate rhodamine- or FITC-conjugated donkey IgG for 1 hr at room temperature. Nuclei were located by counterstaining with Hoechst 33258 for 7 min. Images were captured using a Zeiss epifluorescence microscope with a CCD camera.
(§3) Cells were scraped into lysis buffer (150 μL/35-mm well) containing 20 mM HEPES (pH 7.4), 1% SDS, 150 mM NaCl, 1 mM EGTA, 5 mM β-glycerophosphate, 10 mM sodium pyrophosphate, 10 mM sodium fluoride, […] sodium orthovanadate, 10 μg/mL leupeptin, and 10 μg/mL aprotinin. The lysate was incubated on ice for 15 min. Total cell lysate was also separated into cytoplasmic and nuclear fractions using the NE-PER nuclear and cytoplasmic extraction kit (Pierce, Rockford, Ill.) according to the manufacturer's instructions. Each cellular fraction was then resolved by SDS-PAGE and then electrotransferred to polyvinylidene difluoride membranes (Millipore, Bedford, Mass.) and processed for immunoblot analysis. Antibodies used in the immunoblot study included human PEDF (sc-59641; Santa Cruz Biotechnology), mouse PEDF (sc-74253; Santa Cruz Biotechnology), type I collagen 1A1 (sc-25974; Santa Cruz Biotechnology), α-SMA (ab5694 or ab7817; Abcam), PPARγ••(sc-7273; Santa Cruz Biotechnology), MCP-1 (ab7202; Abcam Ltd), α-actin (Sigma), epithelial cell adhesion molecule (EpCAM; sc-66020; Santa Cruz Biotechnology), hepatocytes nuclear factor and (HVF)3-β (sc-6554; Santa Cruz Biotechnology). Proteins of interest were detected using the appropriate IgG-HRP secondary antibody and ECL reagent. X-ray films were scanned on a Model GS-700 Imaging Densitometer (Bio-Rad Laboratories, Hercules, Calif.) and analyzed using Labworks 4.0 software. For quantification, blots from at least three independent experiments were used.
After treatment, primary rat HSCs were fixed for 2 h with 4% paraformaldehyde, washed by PBS and then permeabilized for 5 min with 0.1% Triton X-100. Changes in F-actin structures were detected by […] rhodamine-conjugated phalloidin (Sigma) for 1 h at room temperature. Stained F-actin was visualized using a Zeiss Axiovert 25 microscope.
To verify whether the PEDF-derived peptides, particularly, 34-mer PEDF and 44-mer PEDF, may prevent HSCs from activation, culture-activated primary rat HSCs were treated with 4.5 nM PEDF, 50 nM 44-mer, 50 nM 34-mer or PEDF solvent (20 mM Tris/HCl, pH 7.4, 100 mM NaCl) for 48 hours. […] Immunofluorescent assay also confirmed that 34-mer PEDF reduced the levels of α-SMA in culture-activated HSCs as compared with 44-mer PEDF treatment (FIG. 6F). Such result is consistent with the finding in Example 1 that PEDF prevents HSCs from activation by induction of PPARγ.

[3] = test system: liver-derived progenitor cells (LDPCs); experiment: Self-renewal of LDPCs over two passages and differentiation into hepatocytes; format: cell-based, rat; details: for autofluorescence (LDPC marker): 4.5 nM PEDF, 50 nM 34-mer or 50 nM 44-mer
Procedure: as §1, §2, §3
It has been reported that LDPCs may not be expanded in conventional basal medium, unless growth factor(s) were added therein (Sahin et al., Liver Transpl. 2008 14(3):333-45). To test the self-renewal property of PEDF derived peptides on LDPCs, liver cells were isolated and grown in separate medium including 4.5 nM (200 ng/ml) PEDF, 50 nM 34-mer or 50 nM 44-mer for two passages, which took a period of 35 days. The newly produced LDPCs in the cultured cells were confirmed by the detection of autofluorescence emitted therefrom; as well as two LDPC markers, which are epithelial cell adhesion molecule (EpCAM) and hepatocytes nuclear factor 3•••(HNF3)-β, by immunoblot analysis. […]

HSC-T6 cells = experiment: PPARγ induction and PPARγ siRNA reversal in HSC-T6 cells; format: cell-based, rat; details: siRNA pretreatment 16 hours before PEDF; 10 nM siRNA
Procedure: HSC-T6 cells, a rat immortalized HSC, retained all features of activated HSCs and was kindly provided by Dr. Friedman S L (Kim et al., J Biol Chem 1998 273:33750-33758). HSC-T6 cells were grown in Waymouth medium supplemented with 10% FBS at 37° C. in a humidified atmosphere of 5% CO2.
The total RNA was extracted from cells using the TRIzol (Invitrogen, Carlsbad, Calif.). […] The intensities of the PCR products were quantified using a FUJI LAS-3000 densitometer and Multi Gauge Ver. […]
Cells were scraped into lysis buffer (150 μL/35-mm well) containing 20 mM HEPES (pH 7.4), 1% SDS, 150 mM NaCl, 1 mM EGTA, 5 mM β-glycerophosphate, 10 mM sodium pyrophosphate, 10 mM sodium fluoride, […] sodium orthovanadate, 10 μg/mL leupeptin, and 10 μg/mL aprotinin. […] Proteins of interest were detected using the appropriate IgG-HRP secondary antibody and ECL reagent. X-ray films were scanned on a Model GS-700 Imaging Densitometer (Bio-Rad Laboratories, Hercules, Calif.) and analyzed using Labworks 4.0 software. For quantification, blots from at least three independent experiments were used. […]

| Substance | colonies of LDPCs formed [1] | Col1a1 expression (immunoblot) [2] | MCP-1 expression (immunoblot) [2] | amounts of PPARγ (immunoblot) [2] | α-SMA expression (immunoblot) [2] | α-SMA by immunofluorescent staining ([2]; culture-activated HSCs, 34-mer compared with 44-mer PEDF treatment) | HSC morphology ([2]; culture-activated HSCs, phase contrast / immunofluorescence) | autofluorescence (LDPC marker) ([3]; two passages, 35 days) | ability of expanded LDPCs to differentiate into hepatocytes (albumin and CK-18 staining) ([3]; immunofluorescence) | self-renewal by expression of LDPC markers EpCAM and HNF3-β (immunoblot) ([3]; two passages, 35 days) | suppressive effects of PEDF on HSC activation (α-SMA, Col1a1, MCP-1) (HSC-T6 cells) |
| --- | --- | --- | --- | --- | --- | --- | --- | --- | --- | --- | --- |
| 34-mer PEDF: synthetic human peptide, the segment of PEDF from amino acid residues 44 to 77 (Ac-DPFFKVPVNKLAAAVSNFGYDLYRVRSSTSPTTN-NH2) | Few colonies | reduced | reduced | enhanced | reduced | reduced | causes reversal of the activated HSC morphology | very little autofluorescence or none at all |  |  |  |
| Ac-VLLSPLSVATALSALSLGAEQRTESIIHRALTTDLISSPDIHGT-NH2 [44-mer PEDF] | dense colonies | does not possess such effects | does not possess such effects | does not possess such effects | does not possess such effects |  |  | emitted autofluorescence | retain the ability of differentiating into hepatocyte | exhibits self-renewal property |  |
| PPARγ siRNA: rat PPARγ siRNA (SEQ ID NO: 7/8) or a mixture of four rat PPARγ siRNAs (SMART-pools) (chain 1 CACCAUUUGUCAUCUACGATT; chain 2 UCGUAGAUGACAAAUGGUGTT; chemistry not given here) [reference compound] |  |  |  |  |  |  |  |  |  |  | significantly reduced the suppressive effects of PEDF |
